Reference: US10179123B2, “2-aryl- and 2-arylalkyl-benzimidazoles as mIDH1 inhibitors” (BAYER PHARMA AKTIENGESELLSCHAFT, priority 2015, dated 2019)

Target: IDH1 R132H enzyme (Homo sapiens (Human), UniProt O75874, R132H)
Assay: Mutant IDH1 R132H biochemical assay
Conditions: NADPH consumption, luminescent readout; 1.5 nM enzyme, 1 μM NADPH, 250 μM α-KG, 30 minutes, 32° C.
Method: NADPH consumption was measured by luminescent readout. […] The final DMSO concentration was 2.4%. […] Luminescence was measured on a luminescent reader (10 seconds measuring time, 1 second integration period, 30% sensitivity). The decrease in luminescence is proportional to mIDH1 activity. IC50 values are determined by interpolation from plots of relative luminescence versus inhibitor concentration.

IDH1 R132H enzyme, sequence (O75874 whole entry R132H): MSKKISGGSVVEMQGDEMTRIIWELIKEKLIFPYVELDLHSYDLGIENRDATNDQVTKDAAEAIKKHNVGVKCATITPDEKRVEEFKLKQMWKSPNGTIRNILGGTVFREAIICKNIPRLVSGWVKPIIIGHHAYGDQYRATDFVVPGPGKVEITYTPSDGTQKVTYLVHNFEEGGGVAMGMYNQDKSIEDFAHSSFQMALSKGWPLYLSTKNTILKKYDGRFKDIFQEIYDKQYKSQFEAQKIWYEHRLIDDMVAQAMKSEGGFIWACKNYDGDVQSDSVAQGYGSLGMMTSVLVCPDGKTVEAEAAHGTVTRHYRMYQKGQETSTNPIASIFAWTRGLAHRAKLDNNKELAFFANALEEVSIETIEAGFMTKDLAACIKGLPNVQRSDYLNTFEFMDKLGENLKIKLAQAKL

| SMILES | IC50 [µM] |
| --- | --- |
| CC(C)Oc1cc2c(cc1C(=O)O)nc(Cc1ccc(OC(F)(F)F)cc1)n2[C@H]1C[C@@H](C)CC(C)(C)C1 (stereo in doubt) [Example 2-46-2] | 0.5 |
| COC(=O)c1ccc2c(c1)nc(C(C)c1ccc(OC(F)(F)F)cc1)n2[C@H]1C[C@@H](C)CC(C)(C)C1 (single isomer, unassigned) [Reference compound 2-4-2, methyl 2-{1-[4-(trifluoromethoxy)phenyl]ethyl}-1-[(cis)-3,3,5-trimethylcyclohexyl]-1H-benzimidazole-5-carboxylate, reference compound] | > 10 |
| COC(=O)c1cc2nc(Cc3ccc(OC(F)(F)F)cc3)n([C@H]3C[C@@H](C)CC(C)(C)C3)c2cc1OC(C)C (single isomer, unassigned) [Example 2-20-2, methyl 6-(propan-2-yloxy)-2-[4-(trifluoromethoxy)benzyl]-1-[(cis)-3,3,5-trimethylcyclohexyl]-1H-benzimidazole-5-carboxylate] | 3.3 |
| COC(=O)c1ccc2c(c1)nc(C(C)c1ccc(OC(F)(F)F)cc1)n2[C@H]1C[C@@H](C)CC(C)(C)C1 (relative stereo) [Reference compound 2-4, methyl 2-{1-[4-(trifluoromethoxy)phenyl]ethyl}-1-[(cis)-3,3,5-trimethylcyclohexyl]-1H-benzimidazole-5-carboxylate, reference compound] | > 10 |
| COC(=O)c1cc2nc(Cc3ccc(OC(F)(F)F)cc3)n([C@H]3C[C@@H](C)CC(C)(C)C3)c2cc1C (single isomer, unassigned) [Example 2-18-2, methyl 6-methyl-2[4-(trifluoromethoxy)benzyl]-1-[(cis)-3,3,5-trimethylcyclohexyl]-1H-benzimidazole-5-carboxylate] | 1.2 |

The next lines start with the values.

| IC50 [µM] | SMILES |
| --- | --- |
| 10 | COC(=O)c1ccc2c(c1)nc(Cc1ccccc1OC(F)(F)F)n2[C@@H]1C[C@H](C)CC(C)(C)C1 (racemic) [Example 2-13, (± methyl 2-[2-(trifluoromethoxy)benzyl]-1-[(cis)-3,3,5-trimethylcyclohexyl]-1H-benzimidazole-5-carboxylate] |
| 9.9 | COC(=O)c1ccc2c(c1)nc(-c1ccc(OC(F)(F)F)cc1)n2[C@H]1C[C@@H](C)CC(C)(C)C1 (racemic) [Example 2-1, (±) methyl 2-[4-(trifluoromethoxy)phenyl]-1-[(cis)-3,3,5-trimethylcyclohexyl]-1H-benzimidazole-5-carboxylate] |
| 0.58 | Cc1ccc(Cc2nc3cc(C(=O)O)ccc3n2[C@@H]2C[C@H](C)CC(C)(C)C2)cc1 (stereo in doubt) [Example 2-36] |
| 1.5 | COC(=O)c1ccc2c(c1)nc(Cc1ccc(C(F)(F)F)cc1)n2[C@H]1C[C@@H](C)CC(C)(C)C1 (racemic) [Example 2-8, (±) methyl 2-[4-(trifluoromethyl)benzyl]-1-[(cis)-3,3,5-trimethylcyclohexyl]-1H-benzimidazole-5-carboxylate] |
| 1.3 | C[C@H]1C[C@@H](n2c(Cc3ccc(F)cc3)nc3cc(C(=O)O)ccc32)CC(C)(C)C1 (stereo in doubt) [Example 2-35] |
| 4.2 | COC(=O)c1ccc2c(c1)nc(Cc1ccc(F)cc1)n2[C@H]1C[C@@H](C)CC(C)(C)C1 (racemic) [Example 2-9, (±) methyl 2-(4-fluorobenzyl)-1-[(cis)-3,3,5-trimethylcyclohexyl]-1H-benzimidazole-5-carboxylate] |
| 1.5 | CC(C)Oc1ccc(Cc2nc3cc(C#N)ccc3n2[C@H]2C[C@@H](C)CC(C)(C)C2)cc1 (racemic) [Example 2-24, (±) 2-[4-(propan-2-yloxy)benzyl]-1-[(cis)-3,3,5-trimethylcyclohexyl]-1H-benzimidazole-5-carbonitrile] |
| 6.6 | C[C@H]1C[C@@H](n2c(Cc3cn(C)c4ccccc34)nc3cc(C(=O)O)ccc32)CC(C)(C)C1 (stereo in doubt) [Example 2-43] |
